Reference: patent US9056875B2, “Substituted pyrazolo[3′,4′:4,5]thieno[2,3-C]pyridazin-3-amine analogs as positive allosteric modulators of the muscarinic acetylcholine receptor M4” (Vanderbilt University, priority 2012, dated 2015)
Blank lines part the entries; values can stand above or below the compound they belong to.

Assays:
[1] = cited from earlier work
[2] = Alzheimer's disease patients; cited from earlier work
[3] = patients treated with AChE inhibitor; cited from earlier work
mAChR rM4 = molecular target: T1, mAChR rM4 (Rattus norvegicus, UniProt P08485); assay: mAChR rM4 cell-based functional assay (calcium mobilization, potentiation of EC20 acetylcholine response)
T1 construct: expressed in transfected cells
T1 sequence (P08485 1-478): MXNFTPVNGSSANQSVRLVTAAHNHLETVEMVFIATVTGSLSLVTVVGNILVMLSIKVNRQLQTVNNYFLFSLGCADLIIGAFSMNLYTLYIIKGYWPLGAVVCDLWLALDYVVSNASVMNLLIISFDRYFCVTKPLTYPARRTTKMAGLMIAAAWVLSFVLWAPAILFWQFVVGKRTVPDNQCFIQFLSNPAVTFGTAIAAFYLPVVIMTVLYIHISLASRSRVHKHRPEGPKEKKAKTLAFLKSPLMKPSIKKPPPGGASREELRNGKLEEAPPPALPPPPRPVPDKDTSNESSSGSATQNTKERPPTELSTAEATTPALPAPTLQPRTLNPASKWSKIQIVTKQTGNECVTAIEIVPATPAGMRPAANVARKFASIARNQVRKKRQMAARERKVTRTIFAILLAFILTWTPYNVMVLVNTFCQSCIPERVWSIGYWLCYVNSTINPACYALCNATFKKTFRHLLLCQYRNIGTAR
From the text: Chinese hamster ovary (CHO-K1) cells stably expressing rat (r)M1 were purchased from the American Type Culture Collection and cultured according to their indicated protocol. CHO cells stably expressing human (h)M2, hM3, and hM5 were described previously (Levey A I, et al., (1991) J Neurosci 11:3218-3226.); hM1 and hM4 cDNAs were purchased from Missouri S&T cDNA Resource; rM4 cDNA was provided by T. I. Bonner (National Institutes of Health, Bethesda, Md.). rM2 and rM3 were cloned from a rat brain cDNA library and sequence verified. hM1, rM2, rM3, hM4, and rM4 cDNAs were used to stably transfect CHO-K1 cells purchased from the American Type Culture Collection using Lipofectamine® 2000. To make stable rM2, hM2, rM3, hM4, and rM4 cell lines for use in calcium mobilization assays, these cells also were stably transfected with a chimeric G-protein (Gqi5) (provided by B. R. Conklin, University of California, San Francisco) using Lipofectamine® 2000. rM1, hM1, rM3, hM3, rM5, and hM5 cells were grown in Ham's F-12 medium containing 10% heat-inactivated fetal bovine serum (FBS), 20 mM HEPES, and 50 μg/mL G418 sulfate. rM2-Gqi5, hM2-Gqi5, and hM4-Gqi5 cells were grown in the same medium also containing 500 μg/mL hygromycin B. Stable rM4-Gqi5 cells were grown in DMEM containing 10% heat-inactivated FBS, 20 mM HEPES, 400 μg/mL G418 sulfate, and 500 μg/mL Hygromycin B.
For high throughput measurement of agonist-evoked increases in intracellular calcium, CHO-K1 cells stably expressing the target muscarinic receptor were plated in growth medium lacking G418 and hygromycin at 15,000 cells/20 μL/well in Greiner 384-well black-walled, tissue culture (TC)-treated, clear-bottom plates (VWR). Cells were incubated overnight at 37° C. and 5% CO2. The next day, cells were washed using an ELX 405 (BioTek) with four washes (80 μL) of assay buffer then aspirated to 20 μL. Next, 20 μL of 16 μM Fluo-4/acetoxymethyl ester (Invitrogen, Carlsbad, Calif.) prepared as a 2.3 mM stock in DMSO and mixed in a 1:1 ratio with 10% (w/v) Pluronic F-127 and diluted in assay buffer was added to the wells and the cell plates were incubated for […] at 37° C. and 5% CO2. Dye was removed by washing with the ELX 405 (four 80 μL washes of assay buffer) then aspirated to 20 μL. Compound master plates were formatted in an 11 point CRC format (1:3 dilutions) in 100% DMSO with a starting concentration of 10 mM using the BRAVO liquid handler (Agilent). Test compound CRCs were then transferred to daughter plates (240 nL) using the Echo acoustic plate reformatter (Labcyte, Sunnyvale, Calif.) and then diluted into assay buffer (40 μL) to a 2× stock using a Thermo Fisher Combi (Thermo Fisher Scientific, Waltham, Mass.).
Calcium flux was measured using the Functional Drug Screening System (FDSS) 6000 (Hamamatsu Corporation, Tokyo, Japan) as an increase in the fluorescent static ratio. Compounds were applied to cells (20 μL, 2×) using the automated system of the FDSS 6000 at 4 s into the 300 s protocol and the data were collected at 1 Hz. At 144 s into the 300 s protocol, 10 μL of an EC20 concentration of the muscarinic receptor agonist acetylcholine was added (5×), followed by the addition of 12 μL an EC80 concentration of acetylcholine at the 230 s time point (5×). Agonist activity was analyzed as a concentration-dependent increase in calcium mobilization upon compound addition. Positive allosteric modulator activity was analyzed as a concentration-dependent increase in the EC20 acetylcholine response. Antagonist activity was analyzed as a concentration-dependent decrease in the EC80 acetylcholine response. Concentration-response curves were generated using a four-parameter logistical equation in XLfit™ curve fitting software (IDBS, Bridgewater, N.J.) for Excel (Microsoft, Redmond, Wash.) or Prism (GraphPad Software, Inc., San Diego, Calif.). […]

SMILES: CCCCCCOc1nsnc1C1=CCCN(C)C1 [xanomeline]
catalepsy ([1]; animal models): without causing catalepsy
activity in animal models ([1]; compared with known antipsychotic drugs): active in animal models with similar profiles to known antipsychotic drugs
psychotic behavioral symptoms such as delusions, suspiciousness, vocal outbursts, and hallucinations [2]: reduce psychotic behavioral symptoms
treatment induced side effects [2]: gastrointestinal effects

SMILES: Nc1c2c(nc3ccccc13)CCCC2 [tacrine]
hepatotoxicity with elevated liver transaminases observed in patients [3]: about 30 % of patients

Emax at 30 µM (mAChR rM4; %ACh maximum at 30 μM): 58%
EC50 (mAChR rM4; rM4-transfected CHO-K1 cells, positive allosteric modulation of EC20 ACh response, read-out: EC50): 1100 nM
SMILES: Cc1nnc2sc3c(NC4CCN(S(C)(=O)=O)CC4)nn(C)c3c2c1C [Compound 19, 1,7,8-trimethyl-N-(1-(methylsulfonyl)piperidin-4-yl)-1H-pyrazolo[3′,4′:4,5]thieno[2,3-c]pyridazin-3-amine]
